Literature values, collected in US20150065582A1, “Orally Dissolving Formulations of Memantine” (Forest Laboratories Holdings Limited, priority 2006, published 2015).
Structures can show the parent of a compound that is named as a salt.

Columns and labels:
[1] = oral administration of immediate release tablets

solubility (classification) | absolute bioavailability [1] | SMILES
highly soluble |  | CC12CC3CC(C)(C1)CC(N)(C3)C2 [Memantine HCl]
 | approximately 100% | CC12CC3CC(C)(C1)CC(N)(C3)C2 [memantine, 1-amino-3,5-dimethyl adamantane]
